# Tests used:
# [1] = Two-photon action cross-section measurement, fluorescein as standard; assay type: physicochemical; details: Water, 800 nm
# Text: Steady-state composite spectra collected from samples under two-photon excitation were deconvoluted to yield individual photoluminence (PL) contributions using the known spectral profiles of isolated QDs and Cy3 dye emissions (see FIG. 4A, FIG. 4B, FIG. 4C and FIG. 4D).
# Table 1 contains data describing two-photon action cross-sections for QDs populations in water and toluene, characterized using fluorescein as a standard in aqueous buffer (φσ2p=36 GM at 800 nm and pH 13), Cy3, fluorescein and wild-type green fluorescent protein (GFP) (from reference 28). Although multi-photon absorption profiles are non-linear optical phenomena, the longer wavelength emitting QD populations show higher two-photon action cross-sections, consistent with the one-photon absorption behavior.
# HEK 293T/17 cells = test: Two-photon / one-photon fluorescence microscopy of cells incubated with QD-peptide conjugates; assay type: cell-based, human; details: two-photon excitation, 840 nm
# Text: In the first exemplary embodiment, in regard to quantum dot peptide conjugates, cell penetrating peptide (CPP) was synthesized by Boc-solid phase peptide synthesis with the sequence (His)8-Trp-Gly-Leu-Ala-Aib-Ser-Gly-(Arg)8-amide, where Aib is the artificial residue alpha-amino isobutyric acid. The Cy3-labeled peptide was synthesized with the sequence, Ac-(His)6-Gly-Leu-Aib-[…]NH2, where Ac is an acetyl group at the N-terminus. This peptide was labeled with a maleimide-functionalized Cy3 at the cysteine residue. The polyhistidine sequences at the N-termini of the peptides allowed and/or caused their self-assembly on the QD surface. […]
# Exemplary embodiments show a unique advantage of two-photon excitation to probe energy transfer between QDs and conjugated dye acceptors, while investigating the stability of self-assembled QD-peptide conjugates within cells using fluorescence microscopy. […]
# Further, in the first exemplary embodiment, in regard to cell imaging, two-photon cell imaging is performed with a BIO-RAD MRC-1024 MP confocal system using ˜10 mW of 840 nm pulsed excitation (˜80 fs, 80 MHz) at the focal plane of a 60×, 0.9 NA water immersion objective microscope. […] DAPI fluorescence cross-talk was subtracted from the QD channel. […]
Substance,Two-photon action cross-section [1],Cy3 fluorescence / FRET from QDs to Cy3 in cells (HEK 293T/17 cells)
Cy3,<1 GM,
"Tf-Cy3: Cy3-labeled transferrin, endosomal marker, mixed with unlabeled CPP-QD, not bound to QDs",,does not show any evidence of Cy3 fluorescence

# Reference: US20100075361A1, “METHODS OF GENERATING FLORESCENCE RESONANCE ENERGY TRANSFER (FRET) BETWEEN SEMICONDUCTOR QUANTUM DOTS AND FLUORESCENT DYES/PROTEINS VIA MULTI-PHOTON EXCITATION, ACHIEVING ZERO BACKGROUND OR DIRECT EXCITATION CONTRIBUTIONS TO THE FRET SIGNATURE” (Government of the United States of America the Secretary of …, priority 2008, published 2010)
